Source: patent US20230091047A1 (priority 2019, published 2023)
Read-outs that look alike come from different tables or passages of the source.

Legend:
[1] = in vitro; assay type: cell-based; conditions: HepG2 or HepG2.117 cells, 3-days incubation (unmarked values), ATPlite, mean value
How it was run: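 Luminescent ATP quantitation served as the viability endpoint following a 3- or 4-day incubation with test compounds.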

[2] = test system: HBV (HepG2.117 cell line, inducibly HBV producing); test: Anti-HBV activity: intracellular HBV DNA by real-time PCR in HepG2.117 cells after 3 days of treatment; assay type: cell-based, hepatitis B virus; conditions: Hepatitis B virus, HepG2.117, 72 h, read-out: EC50 (μM, mean value)
How it was run: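 First, HBV replication is induced in HepG2.117 cells by doxycycline absence. Next, serially diluted compound is added for 3 days. Finally, intracellular HBV DNA is quantified by HBV-specific real-time PCR.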

[3] = HepG2.117 cells, 3 days of treatment, intracellular HBV DNA by real-time PCR, mean value

Row | SMILES | CC50 at 3 days ([1]; human) [µM] | EC50 [2, 3] [µM] | CC50 at 3 days [1] [µM] | EC50 [2] [µM]
1 | CNC(=O)c1ccc(-n2c(N[C@H](C)CCO)nc3c(c2=O)C[C@@H](C)N(C(=O)c2ccc(Cl)c(Cl)c2)C3)cc1 [Compound C326, 4-[(6R)-7-(3,4-dichlorobenzoyl)-2-{[(2R)-4-hydroxybutan-2-yl]amino}-6-methyl-4-oxo-5,6,7,8-tetrahydropyrido[3,4-d]pyrimidin-3(4H)-yl]-N-methylbenzamide] | > 50 | 0.46 | – | –
2 | CNC(=O)c1ncc(-n2c(NC)nc3c(c2=O)C[C@@H](C)N(C(=O)c2ccc(Cl)c(Cl)c2)C3)cn1 [Compound C327, 5-[(6R)-7-(3,4-dichlorobenzoyl)-6-methyl-2-(methylamino)-4-oxo-5,6,7,8-tetrahydropyrido[3,4-d]pyrimidin-3(4H)-yl]-N-methylpyrimidine-2-carboxamide] | > 50 | 5.15 | – | –
3 | CNC(=O)c1ncc(-n2c(NC(C)C)nc3c(c2=O)C[C@@H](C)N(C(=O)c2ccc(Cl)c(Cl)c2)C3)cn1 [Compound C328, 5-[(6R)-7-(3,4-dichlorobenzoyl)-6-methyl-4-oxo-2-[(propan-2-yl)amino]-5,6,7,8-tetrahydropyrido[3,4-d]pyrimidin-3(4H)-yl]-N-methylpyrimidine-2-carboxamide] | > 50 | 0.51 | – | –
4 | CNC(=O)c1ccc(-n2c(NC3CC3)nc3c(c2=O)C[C@@H](C)N(C(=O)c2ccc(Cl)c(Cl)c2)C3)cc1 [Compound C329, 4-[(6R)-2-(cyclopropylamino)-7-(3,4-dichlorobenzoyl)-6-methyl-4-oxo-5,6,7,8-tetrahydropyrido[3,4-d]pyrimidin-3(4H)-yl]-N-methylbenzamide] | > 50 | 0.55 | – | –
5 | CNC(=O)c1ccc(-n2c(N[C@H](C)CO)nc3c(c2=O)C[C@@H](C)N(C(=O)c2ccc(Cl)c(Cl)c2)C3)cc1 [Compound C330, 4-[(6R)-7-(3,4-dichlorobenzoyl)-2-{[(2R)-1-hydroxypropan-2-yl]amino}-6-methyl-4-oxo-5,6,7,8-tetrahydropyrido[3,4-d]pyrimidin-3(4H)-yl]-N-methylbenzamide] | > 50 | 0.9 | – | –
6 | CNC(=O)c1ccc(-n2c(NC)nc3c(c2=O)C[C@@H](C)N(C(=O)c2ccc(Cl)c(Cl)c2)C3)nc1 [Compound C331, 6-[(6R)-7-(3,4-dichlorobenzoyl)-6-methyl-2-(methylamino)-4-oxo-5,6,7,8-tetrahydropyrido[3,4-d]pyrimidin-3(4H)-yl]-N-methylpyridine-3-carboxamide] | > 50 | 0.95 | – | –
7 | CNC(=O)c1ccc(-n2c(N3CC4(CCC4)C3)nc3c(c2=O)C[C@@H](C)N(C(=O)c2ccc(Cl)c(Cl)c2)C3)cc1 [Compound C332, 4-[(6R)-2-(2-azaspiro[3.3]heptan-2-yl)-7-(3,4-dichlorobenzoyl)-6-methyl-4-oxo-5,6,7,8-tetrahydropyrido[3,4-d]pyrimidin-3(4H)-yl]-N-methylbenzamide] | 26 | 1.46 | – | –
8 | CNC(=O)c1ccc(-n2c(NC3CC3(C)C)nc3c(c2=O)C[C@@H](C)N(C(=O)c2ccc(Cl)c(Cl)c2)C3)cc1 (stereo partly drawn) [Compound C333, 4-[(6R)-7-(3,4-dichlorobenzoyl)-2-[(2,2-dimethylcyclopropyl)amino]-6-methyl-4-oxo-5,6,7,8-tetrahydropyrido[3,4-d]pyrimidin-3(4H)-yl]-N-methylbenzamide] | > 43 | 1.64 | – | –
9 | CNC(=O)c1ccc(-n2c(N[C@H]3CC3(C)C)nc3c(c2=O)C[C@@H](C)N(C(=O)c2ccc(Cl)c(Cl)c2)C3)cc1 [Compound C334, 4-[(6R)-7-(3,4-dichlorobenzoyl)-2-{[(1S)-2,2-dimethylcyclopropyl]amino}-6-methyl-4-oxo-5,6,7,8-tetrahydropyrido[3,4-d]pyrimidin-3(4H)-yl]-N-methylbenzamide] | > 50 | 1.89 | – | –
10 | CNC(=O)c1ccc(-n2c(N[C@H](C)CC(=O)O)nc3c(c2=O)C[C@@H](C)N(C(=O)c2ccc(Cl)c(Cl)c2)C3)cc1 [Compound C336, (3R)-3-({(6R)-7-(3,4-dichlorobenzoyl)-6-methyl-3-[4-(methylcarbamoyl)phenyl]-4-oxo-3,4,5,6,7,8-hexahydropyrido[3,4-d]pyrimidin-2-yl}amino)butanoic acid] | > 50 | 7.66 | – | –
11 | CNC(=O)c1ccc(-n2c(NC(C)C)nc3c(c2=O)C[C@@H](C)N(C(=O)c2ccc(Cl)c(Cl)c2)C3)cc1Cl [Compound C338, 2-chloro-4-[(6R)-7-(3,4-dichlorobenzoyl)-6-methyl-4-oxo-2-[(propan-2-yl)amino]-5,6,7,8-tetrahydropyrido[3,4-d]pyrimidin-3(4H)-yl]-N-methylbenzamide] | > 50 | 0.1 | – | –
12 | CNS(=O)(=O)c1ccc(-n2c(NC(C)C)nc3c(c2=O)C[C@@H](C)N(C(=O)c2ccc(Cl)c(Cl)c2)C3)cc1 [Compound C339, 4-[(6R)-7-(3,4-dichlorobenzoyl)-6-methyl-4-oxo-2-[(propan-2-yl)amino]-5,6,7,8-tetrahydropyrido[3,4-d]pyrimidin-3(4H)-yl]-N-methylbenzene-1-sulfonamide] | > 50 | 0.57 | – | –
13 | CNC(=O)c1ccc(-n2c(NC(C)C)nc3c(c2=O)C[C@@H](C)N(C(=O)c2ccc(Cl)c(Cl)c2)C3)cn1 [Compound C344] | – | – | > 50 | 0.15
14 | CNC(=O)c1ccc(-n2c(N(C)C34CC(C3)C4)nc3c(c2=O)C[C@@H](C)N(C(=O)c2ccc(Cl)c(Cl)c2)C3)cc1 [Compound C345, 4-[(6R)-2-[(bicyclo[1.1.1]pentan-1-yl)(methyl)amino]-7-(3,4-dichlorobenzoyl)-6-methyl-4-oxo-5,6,7,8-tetrahydropyrido[3,4-d]pyrimidin-3(4H)-yl]-N-methylbenzamide] | 21.6 | 0.32 | – | –
15 | CNC(=O)c1ccc(-n2c(NC(C)c3ccc(OC)cc3)nc3c(c2=O)C[C@@H](C)N(C(=O)c2ccc(Cl)c(Cl)c2)C3)cc1 (stereo partly drawn) [Compound C346, 4-[(6R)-7-(3,4-dichlorobenzoyl)-2-{[1-(4-methoxyphenyl)ethyl]amino}-6-methyl-4-oxo-5,6,7,8-tetrahydropyrido[3,4-d]pyrimidin-3(4H)-yl]-N-methylbenzamide] | 36.3 | 0.13 | – | –
16 | CNC(=O)c1ccc(-n2c(NC3CCC34CCC4)nc3c(c2=O)C[C@@H](C)N(C(=O)c2ccc(Cl)c(Cl)c2)C3)cc1 (stereo partly drawn) [Compound C347, 4-[(6R)-7-(3,4-dichlorobenzoyl)-6-methyl-4-oxo-2-[(spiro[3.3]heptan-1-yl)amino]-5,6,7,8-tetrahydropyrido[3,4-d]pyrimidin-3(4H)-yl]-N-methylbenzamide] | 24.2 | 0.27 | – | –
17 | CNC(=O)c1cc(-n2c(NC(C)C)nc3c(c2=O)C[C@@H](C)N(C(=O)c2ccc(Cl)c(Cl)c2)C3)n(C)n1 [Compound C354, 5-[(6R)-7-(3,4-dichlorobenzoyl)-6-methyl-4-oxo-2-[(propan-2-yl)amino]-5,6,7,8-tetrahydropyrido[3,4-d]pyrimidin-3(4H)-yl]-N,1-dimethyl-1H-pyrazole-3-carboxamide] | > 50 | 0.16 | – | –
18 | CNC(=O)c1cc(-n2c(NC(C)C)nc3c(c2=O)C[C@@H](C)N(C(=O)c2ccc(Cl)c(Cl)c2)C3)[nH]n1 [Compound C355, 5-[(6R)-7-(3,4-dichlorobenzoyl)-6-methyl-4-oxo-2-[(propan-2-yl)amino]-5,6,7,8-tetrahydropyrido[3,4-d]pyrimidin-3(4H)-yl]-N-methyl-1H-pyrazole-3-carboxamide] | 34.2 | 0.09 | – | –
19 | CC(C)Nc1nc2c(c(=O)n1-c1ccc(S(C)(=O)=O)cc1)CCN(C(=O)c1ccc3cncn3c1)C2 [Compound C356] | > 50 | > 50 | – | –
20 | CC(C)Nc1nc2c(c(=O)n1-c1ccc(S(C)(=O)=O)cc1)CCN(C(=O)c1nc3ccccc3[nH]1)C2 [Compound C358] | > 50 | > 50 | – | –
21 | CC(C)Nc1nc2c(c(=O)n1-c1ccc(S(C)(=O)=O)cc1)CCN(C(=O)c1ccc3nccn3c1)C2 [Compound C359] | > 50 | > 50 | – | –
22 | CC(C)Nc1nc2c(c(=O)n1-c1ccc(S(C)(=O)=O)cc1)CCN(C(=O)C1Cc3ccccc3O1)C2 (stereo not drawn) [Compound C360] | > 50 | > 50 | – | –
23 | CC(C)Nc1nc2c(c(=O)n1-c1ccc(S(C)(=O)=O)cc1)CCN(C(=O)c1ccn3cncc3c1)C2 [Compound C361] | > 50 | > 50 | – | –
24 | CC(C)Nc1nc2c(c(=O)n1-c1ccc(S(C)(=O)=O)cc1)CCN(C(=O)c1nc3ccccc3o1)C2 [Compound C362] | > 50 | > 50 | – | –
25 | CC(C)Nc1nc2c(c(=O)n1-c1ccc(S(C)(=O)=O)cc1)CCN(C(=O)c1ccc3ncn(C)c3c1)C2 [Compound C363] | > 50 | > 50 | – | –
26 | CC(C)Nc1nc2c(c(=O)n1-c1ccc(S(C)(=O)=O)cc1)CCN(C(=O)c1ccc3ocnc3c1)C2 [Compound C364] | > 50 | > 7.2 | – | –
27 | CC(C)Nc1nc2c(c(=O)n1-c1ccc(S(C)(=O)=O)cc1)CCN(C(=O)c1ccn3ncnc3c1)C2 [Compound C365] | > 50 | > 10 | – | –
28 | CC(C)Nc1nc2c(c(=O)n1-c1ccc(S(C)(=O)=O)cc1)CCN(C(=O)c1ccc3scnc3c1)C2 [Compound C366] | > 50 | > 10 | – | –
29 | CC(C)Nc1nc2c(c(=O)n1-c1ccc(S(C)(=O)=O)cc1)CCN(C(=O)c1ccc(C(F)(F)F)nc1)C2 [Compound C367] | > 50 | > 10 | – | –
30 | COC(=O)[C@H]1CC[C@H](n2c(NC(C)C)nc3c(c2=O)C[C@@H](C)N(C(=O)c2ccc(Cl)c(Cl)c2)C3)CC1 [Compound C370] | > 50 | 0.85 | – | –
